# Literature values as cited in patent publication US7183417B2, “Simple stereocontrolled synthesis of salinosporamide A” (priority 2004, dated 2007).
# Legend:
# proteasome = conditions: qualitative statement from the literature
# many tumor cell lines = conditions: read-out: in vitro cytotoxic activity IC50
SMILES,proteasome inhibition (in words) (proteasome),IC50 (many tumor cell lines) [nM]
C[C@@]12OC(=O)[C@]1([C@@H](O)[C@@H]1C=CCCC1)NC(=O)[C@@H]2CCCl [Salinosporamide A],even more effective proteasome inhibitor than omuralide,≤ 10
"CC(C)[C@H](O)[C@@]12NC(=O)[C@H](C)[C@@H]1OC2=O [omuralide, reference compound]",potent inhibitor of proteasome function,
